{"source": "patent US8334255B2", "about": "“Peptide and treatment for HIV-1 infection” (Thomas Jefferson University, priority 2006, dated 2012)", "key": {"HIV-1IIIB virus": {"test_system": "HIV-1IIIB virus", "assay": "Low multiplicity of infection acute infection assay in MT-2 cells, reverse transcriptase assay", "conditions": "for delay of the onset of virus production: MT-2 cells, RT assay"}, "HIV-1NL4-3 Viruses [1]": {"test_system": "HIV-1NL4-3 Viruses", "assay": "Viral infectivity assay in peripheral blood mononuclear cells, p24 Gag ELISA", "assay_type": "cell-based", "conditions": "PBMCs infected with HIV-1NL4-3, MOI 0.1; p24 antigen level by ELISA", "protocol": "Various truncated analogues of the peptide of amino acid sequence SEQ ID NO:36 were prepared to determine the minimal peptide necessary to inhibit viral infectivity. The compounds were tested in a viral infectivity assay in which PBMCs were infected with HIV-1NLA-3 viruses (MOI: 0.1). The amounts of virus produced were monitored by detecting the HIV-1 p24 antigen. level in the cell culture using p24 Gag ELISA (Zeptometrics)."}, "HIV-1NL4-3 Viruses [2]": {"test_system": "HIV-1NL4-3 Viruses", "assay": "Viral infectivity assay in human T lymphoblastoid H9 cell line, p24 antigen ELISA", "assay_type": "cell-based", "conditions": "H9 cells, MOI 0.01, peptide 50 μM, compared to untreated cells or control peptide", "protocol": "A viral infectivity assay was performed in the presence or absence of the peptides of amino acid sequence SEQ ID NO:2 and SEQ ID NO:36, and the control peptide of amino acid sequence SEQ ID NO:35 using HIV-1NL4-3 viruses in H9 cells and assaying HIV-1 p24 antigen. The procedure was performed essentially as described by B. Yang, et al., J. Bio. Chem., 2003; 278(8), 6596-602, which describes the method as follows. H9 cells (1×10^6) are mixed with HIV-1NL4-3 viruses at a multiplicity of infection of 0.01. After incubation at 37° C. for 5 hours, the excess viruses were removed, and the cells are cultured in the presence of RPMI 1640 medium plus […] fetal bovine serum with or without the peptides at a concentration of 50 μM. Every 3-4 days the supernatants are harvested and refreshed. The effects of the peptides on viral infectivity are monitored by detecting the HIV-1 p24 antigen level in the cell culture supernatant via ELISA."}, "[3]": {"assay": "Physicochemical properties of the peptide (isoelectric point, solubility)"}, "H9 and MT-2 cells": {"test_system": "H9 and MT-2 cells", "assay": "Cellular uptake and intracellular localization of FITC-tagged peptide by fluorescence microscopy", "assay_type": "cell-based", "protocol": "The peptide of amino acid sequence SEQ ID NO:2 was synthesized with a C-terminal fluoroscein isothiocyanate (FTIC) tag. The FITC tag enables fluorescence microscopy of living cells in order to evaluate cellular uptake and intracellular localization of the peptide. Cultures of H9 and MT-2 cells were grown in media as recommended by the American Tissue Culture Collection (ATCC) and each culture was treated once in culture with of the FTIC-tagged peptide of the amino acid sequence SEQ ID NO:2. The cells were then photographed in the culture dish with an inverted fluorescence microscopy at various time points. […] The intracellular distribution was both punctate and diffuse in the cytoplasm but little or no FTIC-tagged peptide was observed within the nuclei of cells. This distribution was sustained for 24-48 hours and diminished by over 50% by 72 hours post-treatment.\nTo highlight the position of the nucleus, H9 and MT-2 cells treated with the FTIC-tagged peptide of the amino acid sequence SEQ ID NO:2 as described above, fixed with 2% paraformaldehyde, permeabilized with 0.4% Triton X-100 and stained with the DNA selective stain 4′,6-diamidino-2-phenylindole (DAPI)."}, "[4]": {"conditions": "living H9 and MT-2 cells, single treatment"}}, "note": "Primed or numbered codes have the meaning given here. Ends that are not written are not given here. FITC′ = not defined here"}
{"substance": "YGRKKRRQRRRGDLGEQHFKGLVL [SEQ ID NO:35]", "values": [{"measurement": "effect on virus production (in words)", "setting": "HIV-1IIIB virus; MOI 0.003, peptide 50 μM", "result": "somewhat enhance virus production"}, {"measurement": "effect on virus production (in words)", "setting": "HIV-1IIIB virus; MOI 0.01, peptide 50 μM", "result": "did not inhibit virus production"}, {"measurement": "effect on virus production (in words)", "setting": "HIV-1IIIB virus; MOI 0.03, peptide 50 μM", "result": "did not inhibit virus production"}, {"measurement": "effect on virus production (in words)", "setting": "HIV-1IIIB virus; MOI 0.1, peptide 50 μM", "result": "did not inhibit virus production"}]}
{"substance": "YGRKKRRQRRRGSNQGGSPLPRS [SEQ ID NO: 75]", "values": [{"measurement": "Activity (inhibiting HIV-1NL4-3 viruses in viral infectivity assay)", "setting": "HIV-1NL4-3 Viruses [1]", "result": "Inactive"}]}
{"substance": "YGRKKRRQRRRGSNQGGSPLPRSV [SEQ ID NO:36]", "values": [{"measurement": "effect on virus production (in words)", "setting": "HIV-1IIIB virus; MOI 0.003, peptide 50 μM", "result": "did not appear to have any effect upon virus production"}, {"measurement": "delay of the onset of virus production", "setting": "HIV-1IIIB virus; MOI 0.01, peptide 50 μM", "result": "3 to 4", "unit": "days"}, {"measurement": "delay of the onset of virus production", "setting": "HIV-1IIIB virus; MOI 0.03, peptide 50 μM", "result": "2 to 3", "unit": "days"}, {"measurement": "delay of the onset of virus production", "setting": "HIV-1IIIB virus; MOI 0.1, peptide 50 μM", "result": "4 to 5", "unit": "days"}, {"measurement": "effect on viral replication (HIV-1 p24 antigen in supernatant)", "setting": "HIV-1NL4-3 Viruses [2]", "result": "inhibited viral replication"}]}
{"substance": "YGRKKRRQRRRGQGGSPLPRSV [SEQ ID NO:2]", "values": [{"measurement": "isoelectric point (pI)", "setting": "[3]", "result": 12.39}, {"measurement": "solubility", "setting": "[3]", "result": "~1000", "unit": "µg/mL"}]}
{"substance": "YGRKKRRQRRRGGGSPLPRSV [SEQ ID NO: 74]", "values": [{"measurement": "Activity (inhibiting HIV-1NL4-3 viruses in viral infectivity assay)", "setting": "HIV-1NL4-3 Viruses [1]", "result": "Inactive"}]}
{"substance": "FTIC-tagged peptide of the amino acid sequence SEQ ID NO:2: peptide of amino acid sequence SEQ ID NO:2 synthesized with a C-terminal fluoroscein isothiocyanate (FTIC) tag (YGRKKRRQRRRGQGGSPLPRSV-{FITC′})", "values": [{"measurement": "intracellular localization (fixed cells, DAPI nuclear stain)", "setting": "H9 and MT-2 cells; H9 and MT-2 cells, 24 h after a single treatment", "result": "localized in the cytoplasm but was not present in the nucleus"}, {"measurement": "diminution of intracellular peptide distribution", "setting": "H9 and MT-2 cells; by 72 hours post-treatment", "result": "over 50%"}, {"measurement": "time after which fluorescence within cells was detected", "setting": "H9 and MT-2 cells; [4]", "result": 5, "unit": "ninutes"}, {"measurement": "time for which the intracellular distribution was sustained", "setting": "H9 and MT-2 cells; [4]", "result": "24 to 48", "unit": "h"}, {"measurement": "time until intracellular localization was apparent in all cells", "setting": "H9 and MT-2 cells; [4]", "result": "≤ 30", "unit": "min"}, {"measurement": "peptide observed within the nuclei of cells", "setting": "H9 and MT-2 cells; living H9 and MT-2 cells, distribution punctate and diffuse in the cytoplasm", "result": "little or no"}]}
